We go through 41 molecules from ChEMBL document CHEMBL2203174, “SAR Development of Lysine-Based Irreversible Inhibitors of Transglutaminase 2 for Huntington's Disease” (ACS Med Chem Lett, 2012).

Each structure is given as a SMILES string. Some results are limits rather than exact numbers.

The target of experiment [1] is T1, Protein-glutamine gamma-glutamyltransferase (Homo sapiens, UniProt P21980).
T1 sequence (P21980 whole entry): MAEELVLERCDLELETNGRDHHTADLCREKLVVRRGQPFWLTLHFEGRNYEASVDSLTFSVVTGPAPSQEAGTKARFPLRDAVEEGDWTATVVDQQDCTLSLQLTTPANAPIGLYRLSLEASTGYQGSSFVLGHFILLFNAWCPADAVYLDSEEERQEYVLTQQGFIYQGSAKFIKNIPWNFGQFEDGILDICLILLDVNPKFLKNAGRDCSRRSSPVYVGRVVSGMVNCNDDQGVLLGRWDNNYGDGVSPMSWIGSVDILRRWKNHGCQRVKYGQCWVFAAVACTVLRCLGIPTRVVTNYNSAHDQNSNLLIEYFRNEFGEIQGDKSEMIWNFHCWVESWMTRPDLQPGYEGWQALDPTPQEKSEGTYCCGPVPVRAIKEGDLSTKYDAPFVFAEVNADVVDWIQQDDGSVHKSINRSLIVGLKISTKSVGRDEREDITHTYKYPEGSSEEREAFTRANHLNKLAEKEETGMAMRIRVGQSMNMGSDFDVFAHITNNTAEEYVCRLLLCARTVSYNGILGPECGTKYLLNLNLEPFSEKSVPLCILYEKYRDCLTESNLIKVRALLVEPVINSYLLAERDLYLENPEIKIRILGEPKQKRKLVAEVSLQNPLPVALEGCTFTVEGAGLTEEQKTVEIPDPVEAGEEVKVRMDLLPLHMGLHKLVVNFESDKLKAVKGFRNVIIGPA
Nature of the experiment: Irreversible inhibition of transglutaminase 2.

Experiment [2] addresses T2, Coagulation factor XIII A chain (Homo sapiens, UniProt P00488).
T2 sequence (P00488 whole entry): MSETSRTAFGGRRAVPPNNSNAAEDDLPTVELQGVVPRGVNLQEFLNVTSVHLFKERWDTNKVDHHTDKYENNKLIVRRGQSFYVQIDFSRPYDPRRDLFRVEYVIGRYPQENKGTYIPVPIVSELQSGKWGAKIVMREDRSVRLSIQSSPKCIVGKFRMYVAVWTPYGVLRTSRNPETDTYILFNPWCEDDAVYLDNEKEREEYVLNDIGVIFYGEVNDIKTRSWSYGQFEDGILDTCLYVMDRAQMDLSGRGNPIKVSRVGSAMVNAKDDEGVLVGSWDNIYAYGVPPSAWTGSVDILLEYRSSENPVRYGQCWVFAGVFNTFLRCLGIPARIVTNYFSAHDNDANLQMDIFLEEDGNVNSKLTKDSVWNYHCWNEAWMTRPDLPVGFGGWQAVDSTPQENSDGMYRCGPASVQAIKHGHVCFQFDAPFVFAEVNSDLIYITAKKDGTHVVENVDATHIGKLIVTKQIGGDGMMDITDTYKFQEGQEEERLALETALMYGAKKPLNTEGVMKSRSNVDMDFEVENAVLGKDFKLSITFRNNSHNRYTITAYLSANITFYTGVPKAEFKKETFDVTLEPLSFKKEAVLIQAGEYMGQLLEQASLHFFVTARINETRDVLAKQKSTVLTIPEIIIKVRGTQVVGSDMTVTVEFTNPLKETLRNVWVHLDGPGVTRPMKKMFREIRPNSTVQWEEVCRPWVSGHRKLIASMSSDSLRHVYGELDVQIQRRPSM
The experiment in a line: Inhibition of coagulation factor 13a.

Experiment [3] addresses T3, Protein-glutamine gamma-glutamyltransferase E (Homo sapiens, UniProt Q08188).
T3 sequence (Q08188 whole entry): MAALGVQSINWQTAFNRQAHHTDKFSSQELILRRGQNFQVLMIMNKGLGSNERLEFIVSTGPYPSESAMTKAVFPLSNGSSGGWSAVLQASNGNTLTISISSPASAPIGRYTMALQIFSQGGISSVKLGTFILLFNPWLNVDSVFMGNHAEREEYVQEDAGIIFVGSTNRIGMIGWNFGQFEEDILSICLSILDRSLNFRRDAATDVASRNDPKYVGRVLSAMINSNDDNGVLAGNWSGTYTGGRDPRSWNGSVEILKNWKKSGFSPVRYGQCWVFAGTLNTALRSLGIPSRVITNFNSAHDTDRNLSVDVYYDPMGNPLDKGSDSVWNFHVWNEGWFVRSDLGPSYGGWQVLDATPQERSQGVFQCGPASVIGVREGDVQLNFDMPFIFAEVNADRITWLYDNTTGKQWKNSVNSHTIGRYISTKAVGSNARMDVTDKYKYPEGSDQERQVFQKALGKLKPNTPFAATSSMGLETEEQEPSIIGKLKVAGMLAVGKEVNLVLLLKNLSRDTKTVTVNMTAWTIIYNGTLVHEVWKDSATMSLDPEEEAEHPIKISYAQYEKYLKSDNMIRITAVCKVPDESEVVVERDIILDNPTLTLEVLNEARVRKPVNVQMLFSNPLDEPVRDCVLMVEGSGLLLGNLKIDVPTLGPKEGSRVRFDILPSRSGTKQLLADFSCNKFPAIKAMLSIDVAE
Nature of the experiment: Inhibition of transglutaminase 3.

The target in experiment [4] is T4, Protein-glutamine gamma-glutamyltransferase K (Homo sapiens, UniProt P22735).
T4 sequence (P22735 whole entry): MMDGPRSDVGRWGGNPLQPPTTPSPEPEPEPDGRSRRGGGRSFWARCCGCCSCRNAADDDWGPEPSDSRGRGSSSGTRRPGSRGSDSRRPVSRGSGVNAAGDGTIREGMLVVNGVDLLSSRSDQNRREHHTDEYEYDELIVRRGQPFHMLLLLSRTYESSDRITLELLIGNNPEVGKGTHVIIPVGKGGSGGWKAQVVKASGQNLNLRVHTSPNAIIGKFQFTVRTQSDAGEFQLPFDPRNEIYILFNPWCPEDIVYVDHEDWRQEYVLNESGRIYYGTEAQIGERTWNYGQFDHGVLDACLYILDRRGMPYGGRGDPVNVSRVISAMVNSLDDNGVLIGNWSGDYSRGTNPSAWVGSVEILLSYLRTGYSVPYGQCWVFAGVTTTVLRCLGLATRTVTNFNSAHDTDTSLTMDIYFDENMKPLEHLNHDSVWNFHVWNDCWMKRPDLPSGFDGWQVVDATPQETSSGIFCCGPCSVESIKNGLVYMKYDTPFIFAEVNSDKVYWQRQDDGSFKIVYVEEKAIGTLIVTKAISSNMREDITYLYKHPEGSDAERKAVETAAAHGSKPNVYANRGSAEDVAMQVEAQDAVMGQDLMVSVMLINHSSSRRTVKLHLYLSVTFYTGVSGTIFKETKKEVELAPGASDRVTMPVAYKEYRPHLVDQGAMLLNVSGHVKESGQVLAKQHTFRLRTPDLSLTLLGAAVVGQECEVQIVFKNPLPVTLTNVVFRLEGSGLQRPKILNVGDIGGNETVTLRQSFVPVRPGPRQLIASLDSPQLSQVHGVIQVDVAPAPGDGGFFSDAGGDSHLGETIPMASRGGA
Nature of the experiment: Inhibition of transglutaminase 1.

A short description of experiment [5]: Ratio of IC50 for mouse transglutaminase 2 to IC50 for human transglutaminase 2.

One may read the IC50 as the point on the concentration scale where inhibition reaches its midpoint. Higher therefore signals weaker potency. As for `C=CC(=O)NCCCC[C@H](NC(=O)OCc1cccc2ccccc12)C(=O)O`, the midpoint of inhibition in experiment [1], the IC50, lay at 14 µM.

In the case of `C=CC(=O)NCCCC[C@H](NC(=O)OCc1c(F)cccc1F)C(=O)O`, in experiment [1], the IC50 worked out at 10 µM. This IC50 and that of the molecule before are within 1.5-fold of each other. As for `C=CC(=O)NCCCC[C@H](NC(=O)OCc1ccccc1)C(=O)N1CCC(c2ccccc2)CC1`, the IC50 in experiment [2] was 21 µM; in experiment [3] it was over 80 µM; in experiment [4], 9.3 µM; in experiment [1], 0.054 µM. `C=CC(=O)NCCCC[C@H](NC(=O)OCc1ccc(C(C)(C)C)cc1)C(=O)O` showed an IC50 in experiment [1] of 21 µM. In other words, the double-digit micromolar range. Still for that read-out and setting: the result for `C=CC(=O)NCCCC[C@@H](CO)NC(=O)OCc1ccccc1` reads 5.4 µM; that for `C=CC(=O)NCCCC[C@H](NC(=O)OC(C)(C)C)C(=O)N1CCN(c2cccc(C)n2)CC1`, 0.85 µM. On the same count and under the same terms, under `C=CC(=O)NCCCC[C@H](NC(=O)OCc1ccccc1C(F)(F)F)C(=O)O` stands 3.5 µM; under `C=CC(=O)N1CCC(C[C@H](NC(=O)OC(C)(C)C)C(=O)O)CC1`, over 80 µM. Still for that read-out and setting: under `C=CC(=O)NCCCC[C@H](NC(=O)OCc1ccccc1)C(=O)N1CCC(F)(F)CC1` stands 0.66 µM; under `C=CC(=O)NCCCC[C@H](NC(=O)OCc1ccccc1)C(=O)N1CCCCCC1`, 0.59 µM; under `C=CC(=O)Nc1ccc(C[C@H](NC(=O)OCc2ccccc2)C(=O)O)cc1`, over 80 µM. Regarding `C=CC(=O)NCCCC[C@H](NC(=O)OCc1cccc(C(F)(F)F)c1)C(=O)O`, in experiment [1], the IC50 was found to be 10 µM.

Regarding `C=CC(=O)NCCCC[C@H](NC(=O)OCc1ccccc1)C(=O)N1CCN(c2ncccc2C(F)(F)F)CC1`, the Ratio IC50 in experiment [5] came out at 2. This molecule displayed an IC50 in experiment [1] of 0.16 µM. For `C=CC(=O)NCCCC[C@H](NC(=O)OCc1ccccc1)C(=O)N1CCN(c2cc(Cl)ccc2OC)CC1`, in that order: 2 and 0.078 µM. For `C=CC(=O)NCCCC[C@H](NC(=O)OCc1ccccc1)C(=O)N1CCC1`, the midpoint of inhibition in experiment [1], the IC50, lay at 2.5 µM. Still for that read-out and setting: under `C=CC(=O)NCCCC[C@H](NC(=O)OC)C(=O)O` stands over 80 µM. For the molecule `C=CC(=O)NCCCC[C@H](NC(=O)OCc1ccccc1)C(=O)N1CCN(C)CC1`, the Ratio IC50 in experiment [5] amounted to 2. The molecule further registered an IC50 in experiment [1] of 0.61 µM. Regarding `C=CC(=O)NCCCC[C@H](NC(=O)OCc1ccccc1)C(=O)N(CC)CC`, in experiment [1], the midpoint of inhibition, the IC50, lay at 1.4 µM. Same read-out and setting: under `C=CC(=O)NCCCC[C@H](NC(=O)OCc1ccc(C)cc1)C(=O)O` stands 14 µM. The same measure, in the same setting: the result for `C=CC(=O)NCCCC[C@H](NC(=O)OCc1ccccc1)C(=O)N1CCOCC1` reads 0.73 µM; that for `C=CC(=O)NCCCC[C@H](NC(=O)OCc1ccccc1Cl)C(=O)O`, 1.9 µM. Take `C=CC(=O)NCCCC[C@H](NC(=O)OCc1ccccc1)C(=O)N1CCCC1`: in experiment [1], the IC50 amounted to 0.58 µM. The same measure, in the same setting: the result for `C=CC(=O)NCCCC[C@H](NC(=O)c1ccc2ccccc2c1)C(=O)N1CCN(c2cccc(C)n2)CC1` reads 1.6 µM; that for `C=CC(=O)NCCCCCNC(=O)OCc1ccccc1`, 7.6 µM; that for `C=CC(=O)NCCCC[C@H](NC(=O)OCc1ccccc1)C(=O)N(C)C`, 1.1 µM.

In experiment [1], `C=CC(=O)NCCCC[C@H](NC(C)=O)C(=O)N1CCN(c2cccc(C)n2)CC1` returned an IC50 of 0.19 µM. The same measure, in the same setting: the result for `C=CC(=O)NCCCC[C@H](NC(=O)c1ccccc1)C(=O)N1CCN(c2cccc(C)n2)CC1` reads 0.19 µM; that for `C=CC(=O)NCCC1C[C@@H](C(=O)N2CCN(c3cccc(C)n3)CC2)N(C(=O)OC(C)(C)C)C1` (mixture of isomers), 1.8 µM. Still for that read-out and setting: under `C=CC(=O)NCCCC[C@H](NC(=O)OCc1ccccc1)C(=O)N1CCCCC1` stands 1.2 µM; under `C=CC(=O)NCCCC[C@H](NC(=O)OCc1ccc([N+](=O)[O-])cc1)C(=O)O`, 62 µM. Take `C=CC(=O)NCCCC[C@H](NC(=O)OCc1ccccc1)C(=O)N1CCN(c2ccc3ccccc3c2)CC1`: the Ratio IC50 in experiment [5] was 2. Further, the IC50 in experiment [1] was 0.23 µM.

As to `C=CC(=O)NCCCC[C@H](NC(=O)OCc1ccccc1)C(=O)N1CCN(c2ccc(C(F)(F)F)cn2)CC1`, the Ratio IC50 in experiment [5] stood at 2. The molecule further came in with a half-inhibitory concentration (IC50) in experiment [1] of 0.11 µM. `C=CC(=O)NCCCC[C@H](NC(=O)OCc1ccc(F)cc1)C(=O)O` registered an IC50 in experiment [1] of 7.9 µM. Regarding `C=CC(=O)NCCCC[C@H](NC(=O)OCc1ccccc1)C(=O)N1CCN(c2ncccc2C)CC1`, in experiment [5], the Ratio IC50 amounted to 2. The molecule also gave an IC50 in experiment [1] of 0.17 µM. The molecule `C=CC(=O)NCCCC[C@H](NC(=O)OCc1ccc(C(F)(F)F)cc1)C(=O)O` came in with an IC50 in experiment [1] of 33 µM. On the same count and under the same terms, under `C=CC(=O)NCCCC[C@H](NC(=O)OCc1ccccc1)C(=O)N1Cc2ccccc2C1` stands 0.24 µM. `C=CC(=O)NCCCC[C@H](NC(=O)OCc1ccccc1)C(=O)N1CCN(c2cccc(C)n2)CC1`: the Ratio IC50 in experiment [5] amounted to 2. Further, inhibition in experiment [1] was half-maximal at 0.055 µM (IC50). In experiment [1], `C=CC(=O)NCCCC[C@H](NC(=O)OCc1ccccc1)C(=O)O` displayed an IC50 of 2.7 µM. As for `C=CC(=O)NCCCC[C@H](NC(=O)OCc1ccccc1)C(=O)N1CCN(c2ccccn2)CC1`, the Ratio IC50 in experiment [5] was determined as 2. Moreover, the IC50 in experiment [1] came out at 0.26 µM.

Turning to `C=CC(=O)NCCCC[C@H](NC(=O)OCc1ccc(CCCC)cc1)C(=O)O`, half-maximal inhibition in experiment [1] (IC50) was put at 5.9 µM. The same measure, in the same setting: under `C=CC(=O)NCCCC[C@H](NC(=O)OCc1ccc2ccccc2c1)C(=O)O` stands 9.1 µM.
